Experimental findings from publication PMC10485906, “Development of a Dihydroquinoline–Pyrazoline GluN2C/2D-Selective Negative Allosteric Modulator of the N-Methyl-D-aspartate Receptor” (ACS Chemical Neuroscience, 2023) are described below.

The term amount remaining denotes the share of the starting amount still present when the sample was taken. High values mean greater stability, low ones a greater loss. Broadly, the IC50 is the concentration needed to halve the response being measured.

“And” between values parts separate entries of the source, which are not always exact repeats. Identical values can stand only once. Marks after values point to notes of the source that are not given here.

T1 sequence (Q00960 27-1482, other chains not shown): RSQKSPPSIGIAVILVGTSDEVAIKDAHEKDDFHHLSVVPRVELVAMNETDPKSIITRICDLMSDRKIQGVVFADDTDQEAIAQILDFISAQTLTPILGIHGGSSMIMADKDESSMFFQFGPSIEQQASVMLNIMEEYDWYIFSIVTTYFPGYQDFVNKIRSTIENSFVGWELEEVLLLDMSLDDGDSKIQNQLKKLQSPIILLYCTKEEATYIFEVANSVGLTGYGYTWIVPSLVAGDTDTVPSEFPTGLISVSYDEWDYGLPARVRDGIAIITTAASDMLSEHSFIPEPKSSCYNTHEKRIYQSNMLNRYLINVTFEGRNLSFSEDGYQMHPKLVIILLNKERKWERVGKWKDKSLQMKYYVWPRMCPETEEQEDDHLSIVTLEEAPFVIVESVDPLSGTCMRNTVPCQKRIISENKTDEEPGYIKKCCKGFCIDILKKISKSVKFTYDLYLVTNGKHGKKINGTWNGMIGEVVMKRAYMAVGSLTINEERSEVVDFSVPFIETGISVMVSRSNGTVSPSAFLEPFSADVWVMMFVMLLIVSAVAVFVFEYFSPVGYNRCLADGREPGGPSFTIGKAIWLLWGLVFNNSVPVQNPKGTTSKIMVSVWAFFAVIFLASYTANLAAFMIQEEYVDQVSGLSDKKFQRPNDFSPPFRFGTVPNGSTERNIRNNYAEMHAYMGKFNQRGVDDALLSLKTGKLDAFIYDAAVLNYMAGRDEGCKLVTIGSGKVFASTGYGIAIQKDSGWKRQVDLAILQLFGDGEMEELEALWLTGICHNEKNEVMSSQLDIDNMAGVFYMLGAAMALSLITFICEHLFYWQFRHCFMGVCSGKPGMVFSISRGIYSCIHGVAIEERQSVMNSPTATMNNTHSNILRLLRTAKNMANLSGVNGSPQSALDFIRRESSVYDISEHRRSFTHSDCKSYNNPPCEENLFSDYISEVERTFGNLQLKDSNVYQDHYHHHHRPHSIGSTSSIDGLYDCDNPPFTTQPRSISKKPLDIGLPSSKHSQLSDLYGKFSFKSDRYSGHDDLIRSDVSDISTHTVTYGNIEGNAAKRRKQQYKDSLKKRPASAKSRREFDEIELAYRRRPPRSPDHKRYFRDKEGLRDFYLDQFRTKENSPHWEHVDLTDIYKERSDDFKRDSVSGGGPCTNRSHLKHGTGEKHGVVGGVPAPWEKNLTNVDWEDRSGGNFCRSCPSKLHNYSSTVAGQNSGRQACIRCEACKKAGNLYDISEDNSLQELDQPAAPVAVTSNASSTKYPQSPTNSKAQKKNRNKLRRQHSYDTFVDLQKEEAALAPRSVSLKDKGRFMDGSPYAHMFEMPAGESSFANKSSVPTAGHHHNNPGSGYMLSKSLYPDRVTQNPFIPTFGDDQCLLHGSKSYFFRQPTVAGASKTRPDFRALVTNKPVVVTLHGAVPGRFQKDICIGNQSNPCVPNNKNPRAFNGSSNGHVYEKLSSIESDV

Test system in the first data set: not listed separately
The data set is described as follows: Plasma stability, human. It is filed as in vitro ADME. The conditions noted are these: both sexes, human plasma, incubation up to 120 min, 3 μM, read-out: plasma stability T1/2, human. The procedure: Human plasma (lithium heparin (LiHep) mixed, gender pooled, 0.2 μm filtered) and mouse plasma (BALB/C, LiHep mixed, male pooled, 0.2 μm filtered) were purchased from BioIVT. Procaine (Sigma-Aldrich) served as a positive control for both human and mouse plasma experiments. Test compounds and positive controls were initially dissolved in DMSO to make 10 mM stock solutions. The solutions of test and control compounds were then further diluted in 70% MeOH/H2O or 100% MeCN to 500 μM. Next, the human or mouse plasma (994 μL) was aliquoted into 1.5 mL Eppendorf tubes with duplicates (reactions A and B) being prepared for each compound. The plasma was then incubated at 37 °C for 10 min. Afterward, the reaction was initiated by the addition of the test compound (6 μL of 500 μM solution) and further incubated at 37 °C for the designated time course of the study. This procedure provided duplicate experiments with a final volume of 1000 μL (<0.6% organic solvent content) and a final test compound concentration of 3 μM. Aliquots (100 μL) were removed from each reaction mixture at 0, 15, 30, 60, and 120 min time intervals and quenched with 150 μL of cold ISTD solution (2 μM 7-ethoxy-d5-coumarin in MeOH or MeCN). Quenched aliquots were then centrifuged at 15,000 g for 30–45 min, and the resulting supernatants (∼70 μL) were withdrawn and placed in LC-MS vials to be analyzed by LC-MS/MS (Agilent G6460C QQQ MS coupled with an Infinity II 1260 HPLC). Each test compound was run in tandem with positive and negative control experiments for quality assurance. The positive control reaction was conducted at a final volume of 1000 μL for a single run at each time point. Finally, the negative control experiment was conducted with test compounds in DPBS (143 μL) and analyzed at the 120 min time point.
For both LM and plasma assays, each data point was analyzed in triplicate using between blank washes to avoid carry over and to equilibrate the column for the subsequent runs. Averages of these triplicates for individual compounds at each time point were then normalized to the data at 0 min, representing 100% of the test compound remaining or 0% metabolism. Half-lives (t1/2) were calculated by plotting ln of % test compound remaining versus time and performing linear regression to determine slope. Slope = −k and t1/2 = 0.693/k for first-order kinetics (see Figures S5 and S6 for a representative example).
As to `CNC(=O)CC(F)(F)C(=O)N1N=C(c2c(-c3ccc(Cl)cc3)c3ccccc3[nH]c2=O)CC1c1ccc(Cl)cc1` (stereo not shown) [2q], the half-life at 3 μM is greater than 2 h.

Regarding `O=C(CC(F)(F)C(=O)N1N=C(c2c(-c3ccc(Cl)cc3)c3ccccc3[nH]c2=O)CC1c1ccc(Cl)cc1)OCC1CC1` (stereo not shown) [2n], the half-life at 3 μM was greater than 2 h.

As to `CC(C)OC(=O)CC(F)(F)C(=O)N1N=C(c2c(-c3ccc(Cl)cc3)c3ccccc3[nH]c2=O)CC1c1ccc(Cl)cc1` (stereo not shown) [2m], the half-life at 3 μM was greater than 2 h.

For the compound `O=C(O)CC(F)(F)C(=O)N1N=C(c2c(-c3ccc(Cl)cc3)c3ccccc3[nH]c2=O)CC1c1ccc(Cl)cc1` (stereo not shown) [2i], the half-life at 3 μM is greater than 2 h.

Take `NC(=O)CC(F)(F)C(=O)N1N=C(c2c(-c3ccc(Cl)cc3)c3ccccc3[nH]c2=O)CC1c1ccc(Cl)cc1` (stereo not shown) [2k]: the half-life at 3 μM is greater than 2 h.

Regarding `CC(C)(C)COC(=O)CC(F)(F)C(=O)N1N=C(c2c(-c3ccc(Cl)cc3)c3ccccc3[nH]c2=O)CC1c1ccc(Cl)cc1` (stereo not shown) [2o], the half-life at 3 μM was greater than 2 h.

In the case of `O=C(O)CCC(=O)N1N=C(c2c(-c3ccc(Cl)cc3)c3ccccc3[nH]c2=O)CC1c1ccc(Cl)cc1` (stereo not shown) [2a], the half-life at 3 μM is greater than 2 h.

For `O=C(CC(F)(F)C(=O)N1N=C(c2c(-c3ccc(Cl)cc3)c3ccccc3[nH]c2=O)CC1c1ccc(Cl)cc1)OCc1ccccc1` (stereo not shown) [2p], the half-life at 3 μM was greater than 2 h.

As to `CN(C)C(=O)CC(F)(F)C(=O)N1N=C(c2c(-c3ccc(Cl)cc3)c3ccccc3[nH]c2=O)CC1c1ccc(Cl)cc1` (stereo not shown) [2r], the half-life at 3 μM was greater than 2 h.

As for `CCOC(=O)CC(F)(F)C(=O)N1N=C(c2c(-c3ccc(Cl)cc3)c3ccccc3[nH]c2=O)CC1c1ccc(Cl)cc1` (stereo not shown) [2l], the half-life at 3 μM is greater than 2 h.

The same data set, now with this note: both sexes, plasma, over the assay time course.
Consider `O=C(O)CC(F)(F)C(=O)N1N=C(c2c(-c3ccc(Cl)cc3)c3ccccc3[nH]c2=O)CC1c1ccc(Cl)cc1` (stereo not shown) [2i], for which the fraction remaining at 120 min, 3 µM is greater than 95%.

`O=C(O)CCC(=O)N1N=C(c2c(-c3ccc(Cl)cc3)c3ccccc3[nH]c2=O)CC1c1ccc(Cl)cc1` (stereo not shown) [2a] gave a share remaining at 120 min, 3 µM greater than 95%.

A further data set addresses T1, GluN1/GluN2B (Rattus norvegicus, UniProt P35439+Q00960).
T1 construct: GluN2B (NM_012574.1), GluN2C (NM_012575.3), and GluN2D (NM_022797.2) were provided by; expressed in transfected cells; host or cells: Xenopus laevis oocytes (cRNA injection)
The experiment in a line: Two-electrode voltage-clamp recordings, Xenopus laevis oocytes, GluN1/GluN2B. It counts as cell-based. Particulars: 30 μM test compound; 100 μM glutamate, 30 μM glycine; mean ± SEM; read-out: I 30 μM / I control GluN2B. The procedure:
(§1) All target compounds were evaluated for NMDAR antagonism using two-electrode voltage-clamp recordings from Xenopus laevis oocytes coexpressing recombinant GluN1 and GluN2A-D subunits (Table 1).[32],[42],[33] All analogues were assessed as either a racemic (2b, 2e–2r) or diastereomeric (2d) mixture to simplify purification and streamline in vitro analysis. […] Moreover, as illustrated by the significant loss of NMDAR activity observed with nitrile 2e, the DQP allosteric site necessitated an H-bond donor/acceptor relationship at the carboxylate position. […] The loss of NMDAR activity observed with the trifluoro analogue 2j (Table S1) reinforced the necessity for an H-bond donor/acceptor relationship to maintain allosteric binding and established that fluorine substitution alone is ineffective. […] A single methyl substitution of the amide in compound 2q improved selectivity against GluN2A and had similar potency as 2a, whereas dual methyl substitution reduced potency (2r). We expect that this is likely due to the ability of the […] of the amide to accept hydrogen bonds while the amide can readily donate a proton.
(§2) Unfertilized Xenopus laevis oocytes were obtained from Ecocyte (Austin, TX), or ovaries were purchased from Xenopus 1 (Dexter, MI) and oocytes prepared as previously described.[42],[47] Two-electrode voltage-clamp recordings were performed on oocytes expressing recombinant rat GluN1/GluN2A, GluN1/GluN2B, GluN1/GluN2C, or GluN1/GluN2D. cDNAs for rat GluN1-1a (referred to as GluN1; NCBI Reference Sequence NM_017010.2), GluN2A (NM_012573.4), GluN2B (NM_012574.1), GluN2C (NM_012575.3), and GluN2D (NM_022797.2) were provided by Dr. S. Heinemann from the Salk Institute, Dr. S. Nakanishi from Kyoto University, and Dr. P. Seeburg from the University of Heidelberg. Oocyte isolation, cRNA synthesis, and cRNA injections were performed as previously described.[32],[33],[47] Briefly, Xenopus laevis oocytes were injected with 5–10 ng of cRNA in RNase-free water with the GluN1:GluN2 ratio ranging from 1:1 to 1:5. Oocytes were incubated at 15–19 °C in Barth’s solution consisting of (in mM) 88 NaCl, 1 KCl, 2.4 NaHCO3, 10 HEPES, 0.82 MgSO4, 0.33 Ca(NO3)2, and 0.41 CaCl2 supplemented with 100 μg/mL gentamycin, 40 μg/mL streptomycin, and 50 μg/mL penicillin. Recordings were performed 2–4 days after injection with extracellular recording solution containing (in mM) 90 NaCl, 1 KCl, 10 HEPES, 0.5 BaCl2, and 0.01 EDTA at pH 7.4 adjusted with NaOH. To prevent a gradual increase in current response over the course of the experiment, some oocytes expressing GluN1/GluN2A were injected with 20–50 nL of 2–50 mM K-BAPTA. Concentration–response curves for test compounds were generated by applying a maximally effective concentration of glutamate (100 μM) and glycine (30 μM), followed by glutamate and glycine with variable concentrations of test compounds up to 30 μM. The test compounds were prepared as 20 mM stock solutions in DMSO and diluted to the final concentration in recording solution. The DMSO content was 0.05–0.5% (v/v). […] Methods for off-target analysis are given in the Supporting Information.
(§3) Confidence intervals were determined for the log(IC50). The time course of relaxation during inhibitor application or deactivation following rapid removal of NMDA or glutamate was fitted by the equation [drawing 5] 2
As to `O=C(CC(F)(F)C(=O)N1N=C(c2c(-c3ccc(Cl)cc3)c3ccccc3[nH]c2=O)CC1c1ccc(Cl)cc1)OCC1CC1` (stereo not shown) [2n], the remaining activity at 30 µM came out at 92 ± 2.1%.

In the case of `CC(C)OC(=O)CC(F)(F)C(=O)N1N=C(c2c(-c3ccc(Cl)cc3)c3ccccc3[nH]c2=O)CC1c1ccc(Cl)cc1` (stereo not shown) [2m], the remaining activity at 30 µM came to 88 ± 1.3%.

On to `O=C(CC(F)(F)C(=O)N1N=C(c2c(-c3ccc(Cl)cc3)c3ccccc3[nH]c2=O)CC1c1ccc(Cl)cc1)OCc1ccccc1` (stereo not shown) [2p], for which the remaining activity at 30 µM was 103 ± 2.1%.

Regarding `CCOC(=O)CC(F)(F)C(=O)N1N=C(c2c(-c3ccc(Cl)cc3)c3ccccc3[nH]c2=O)CC1c1ccc(Cl)cc1` (stereo not shown) [2l], the remaining activity at 30 µM turned out to be 97 ± 2%.

Staying with this data set, now noted: 100 μM glutamate, 30 μM glycine; read-out: IC50 GluN2B [95% CI].
Turning to `CNC(=O)CC(F)(F)C(=O)N1N=C(c2c(-c3ccc(Cl)cc3)c3ccccc3[nH]c2=O)CC1c1ccc(Cl)cc1` (stereo not shown) [2q], the 50% inhibitory concentration (IC50) was found to be 20 µM.

In the case of `O=C(O)CC(F)(F)C(=O)N1N=C(c2c(-c3ccc(Cl)cc3)c3ccccc3[nH]c2=O)C[C@H]1c1ccc(Cl)cc1` [(S)-(−)-2i], the IC50 was 16 µM.

For the compound `O=C(O)CC(F)(F)C(=O)N1N=C(c2c(-c3ccc(Cl)cc3)c3ccccc3[nH]c2=O)CC1c1ccc(Cl)cc1` (stereo not shown) [2i], the half-inhibitory concentration (IC50) was determined as 16 µM.

For `NC(=O)CC(F)(F)C(=O)N1N=C(c2c(-c3ccc(Cl)cc3)c3ccccc3[nH]c2=O)CC1c1ccc(Cl)cc1` (stereo not shown) [2k], the IC50 is 3.1 µM.

Another data set deals with T2, GluN1/GluN2B (Rattus norvegicus, UniProt Q00960).
T2 construct: GluN2B (NM_012574.1), GluN2C (NM_012575.3), and GluN2D (NM_022797.2) were provided by; expressed in transfected cells; host or cells: Xenopus laevis oocytes (cRNA injection)
T2 sequence (Q00960 27-1482, other chains not shown): as above
The data set is described as above. Particulars: 1 µM compound; 100 µM glutamate, 30 µM glycine; mean ± SEM. It is filed as cell-based. The procedure: as §1, §2, §3
Regarding `O=C(O)CC(F)(F)C(=O)N1N=C(c2c(-c3ccc(Cl)cc3)c3ccccc3[nH]c2=O)C[C@H]1c1ccc(Cl)cc1` [(S)-(−)-2i], the “% control GluN1/GluN2B” value is 90 ± 3.5%.

The same data set, now with this note: tested at 3 μM; 100 μM glutamate, 30 μM glycine; mean ± SEM.
Regarding `O=C(O)CC(F)(F)C(=O)N1N=C(c2c(-c3ccc(Cl)cc3)c3ccccc3[nH]c2=O)C[C@H]1c1ccc(Cl)cc1` [(S)-(−)-2i], the “I3 μM/Icontrol GluN2B” value is 89 ± 6.2 (3, 18) %.

For `O=C(O)CC(F)(F)C(=O)N1N=C(c2c(-c3ccc(Cl)cc3)c3ccccc3[nH]c2=O)CC1c1ccc(Cl)cc1` (stereo not shown) [2i], the “I3 μM/Icontrol GluN2B” value is 78 ± 2.9% and 78 ± 2.9 ^b (2,10) %.

With `NC(=O)CC(F)(F)C(=O)N1N=C(c2c(-c3ccc(Cl)cc3)c3ccccc3[nH]c2=O)CC1c1ccc(Cl)cc1` (stereo not shown) [2k], the “I3 μM/Icontrol GluN2B” value was 28 ± 4.5 ^b (3,10) %.

The same data set, now with this note: tested at 3 μM; 100 μM glutamate, 30 μM glycine; mean ± SEM; listed as racemic 2i.
With `O=C(O)CC(F)(F)C(=O)N1N=C(c2c(-c3ccc(Cl)cc3)c3ccccc3[nH]c2=O)CC1c1ccc(Cl)cc1` (stereo not shown) [2i], the “I3 μM/Icontrol GluN2B” value is on record as 78 ± 2.9 (2, 10) %.

Staying with this data set, now noted: tested at 10 μM (footnote b); 100 μM glutamate, 30 μM glycine; mean ± SEM.
As to `CNC(=O)CC(F)(F)C(=O)N1N=C(c2c(-c3ccc(Cl)cc3)c3ccccc3[nH]c2=O)CC1c1ccc(Cl)cc1` (stereo not shown) [2q], the “I / I control GluN2B” value is 81 ± 8.7 ^b (3, 10) %.

In the case of `CC(C)(C)COC(=O)CC(F)(F)C(=O)N1N=C(c2c(-c3ccc(Cl)cc3)c3ccccc3[nH]c2=O)CC1c1ccc(Cl)cc1` (stereo not shown) [2o], the “I / I control GluN2B” value is 94 ± 1.0%.

Consider `CN(C)C(=O)CC(F)(F)C(=O)N1N=C(c2c(-c3ccc(Cl)cc3)c3ccccc3[nH]c2=O)CC1c1ccc(Cl)cc1` (stereo not shown) [2r], for which the “I / I control GluN2B” value is reported as 78 ± 4.2 ^b (4,22) %.
